In paper PMC12586182 (Frontiers in Oncology, 2025):

Key:
Test in all cases: Kinase panel profiling at 1 µmol/L (mobility shift assay, Carna)
MAP4K2 = target: T1, MAP4K2 (Homo sapiens, UniProt Q12851); type: biochemical; settings: 1 µmol/L of BTK inhibitor
T1 construct: purchased Carna Biosciences
T1 sequence (Q12851 1-820): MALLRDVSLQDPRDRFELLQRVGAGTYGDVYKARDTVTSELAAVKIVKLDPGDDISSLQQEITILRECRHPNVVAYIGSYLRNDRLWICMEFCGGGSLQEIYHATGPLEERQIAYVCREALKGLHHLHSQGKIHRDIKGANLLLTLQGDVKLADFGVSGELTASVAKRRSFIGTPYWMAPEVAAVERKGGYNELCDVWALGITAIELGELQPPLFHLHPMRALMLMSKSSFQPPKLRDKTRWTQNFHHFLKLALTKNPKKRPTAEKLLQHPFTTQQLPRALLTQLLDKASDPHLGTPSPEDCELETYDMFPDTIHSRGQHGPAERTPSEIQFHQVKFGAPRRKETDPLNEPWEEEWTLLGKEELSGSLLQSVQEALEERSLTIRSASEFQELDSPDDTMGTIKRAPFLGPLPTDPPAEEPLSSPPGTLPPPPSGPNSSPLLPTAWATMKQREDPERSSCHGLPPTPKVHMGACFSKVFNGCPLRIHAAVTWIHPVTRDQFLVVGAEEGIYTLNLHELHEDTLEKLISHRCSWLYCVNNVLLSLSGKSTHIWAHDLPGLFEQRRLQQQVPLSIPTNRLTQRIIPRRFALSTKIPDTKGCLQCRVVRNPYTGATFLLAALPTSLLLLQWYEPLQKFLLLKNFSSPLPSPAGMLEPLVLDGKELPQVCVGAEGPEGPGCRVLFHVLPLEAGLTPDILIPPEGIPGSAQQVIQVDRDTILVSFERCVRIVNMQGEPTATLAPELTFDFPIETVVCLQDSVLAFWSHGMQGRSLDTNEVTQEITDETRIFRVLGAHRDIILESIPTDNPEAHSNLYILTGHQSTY

BRK = BRK (Homo sapiens, UniProt Q13882); settings: for Percentage inhibition of kinase enzyme activity: BRK, 1 µmol/L of BTK inhibitor
PKCα = target: T2, PKCα (Homo sapiens, UniProt P17252); type: biochemical; settings: 1 µmol/L of BTK inhibitor
T2 construct: purchased Carna Biosciences

EGFR = EGFR (Homo sapiens, UniProt P00533); settings: for Percentage inhibition of kinase enzyme activity: EGFR, 1 µmol/L of BTK inhibitor
PHKG1 = target: T3, PHKG1 (Homo sapiens, UniProt Q16816); type: biochemical; settings: 1 µmol/L of BTK inhibitor
T3 construct: purchased Carna Biosciences

CDK6/CycD3 = target: T4, CDK6/CycD3 (Homo sapiens, UniProt Q00534); type: biochemical; settings: 1 µmol/L of BTK inhibitor
T4 construct: purchased Carna Biosciences

WNK3 = target: T5, WNK3 (Homo sapiens, UniProt Q9BYP7); type: biochemical; settings: 1 µmol/L of BTK inhibitor
T5 construct: purchased Carna Biosciences

CK2α2/β = target: T6, CK2α2/β (Homo sapiens, UniProt P19784); type: biochemical; settings: 1 µmol/L of BTK inhibitor
T6 construct: purchased Carna Biosciences

PEK = target: T7, PEK (Homo sapiens, UniProt Q9NZJ5); type: biochemical; settings: 1 µmol/L of BTK inhibitor
T7 construct: purchased Carna Biosciences
T7 sequence (Q9NZJ5 30-1116): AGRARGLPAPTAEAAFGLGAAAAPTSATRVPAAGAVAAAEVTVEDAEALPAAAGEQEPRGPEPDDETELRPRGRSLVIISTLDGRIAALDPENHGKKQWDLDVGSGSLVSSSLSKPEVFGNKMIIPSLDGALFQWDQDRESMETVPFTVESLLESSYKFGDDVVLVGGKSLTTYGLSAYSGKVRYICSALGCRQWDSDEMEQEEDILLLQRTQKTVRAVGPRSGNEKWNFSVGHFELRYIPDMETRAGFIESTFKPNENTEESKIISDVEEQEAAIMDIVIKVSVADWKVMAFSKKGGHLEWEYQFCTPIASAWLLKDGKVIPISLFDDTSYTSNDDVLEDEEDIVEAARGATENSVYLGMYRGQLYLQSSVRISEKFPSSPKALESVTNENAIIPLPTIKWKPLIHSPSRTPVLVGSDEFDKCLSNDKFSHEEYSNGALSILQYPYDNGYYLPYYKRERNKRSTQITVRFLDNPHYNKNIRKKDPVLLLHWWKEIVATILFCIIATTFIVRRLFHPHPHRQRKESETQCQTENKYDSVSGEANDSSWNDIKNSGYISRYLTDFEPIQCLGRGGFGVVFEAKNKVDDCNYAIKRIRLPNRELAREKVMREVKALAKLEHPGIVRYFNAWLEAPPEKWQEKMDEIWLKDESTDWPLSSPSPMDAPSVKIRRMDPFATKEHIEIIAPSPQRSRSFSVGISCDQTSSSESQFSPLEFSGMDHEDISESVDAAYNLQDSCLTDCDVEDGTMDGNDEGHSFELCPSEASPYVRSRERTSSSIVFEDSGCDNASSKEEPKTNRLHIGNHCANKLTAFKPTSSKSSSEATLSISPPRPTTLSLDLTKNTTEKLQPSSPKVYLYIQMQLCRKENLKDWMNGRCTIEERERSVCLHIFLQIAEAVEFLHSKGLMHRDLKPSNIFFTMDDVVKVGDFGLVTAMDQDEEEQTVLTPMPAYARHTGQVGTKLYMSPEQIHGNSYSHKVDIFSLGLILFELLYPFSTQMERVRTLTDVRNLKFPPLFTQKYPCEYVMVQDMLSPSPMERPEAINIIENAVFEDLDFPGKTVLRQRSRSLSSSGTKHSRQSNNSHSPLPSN

T5 sequence (Q9BYP7 whole entry): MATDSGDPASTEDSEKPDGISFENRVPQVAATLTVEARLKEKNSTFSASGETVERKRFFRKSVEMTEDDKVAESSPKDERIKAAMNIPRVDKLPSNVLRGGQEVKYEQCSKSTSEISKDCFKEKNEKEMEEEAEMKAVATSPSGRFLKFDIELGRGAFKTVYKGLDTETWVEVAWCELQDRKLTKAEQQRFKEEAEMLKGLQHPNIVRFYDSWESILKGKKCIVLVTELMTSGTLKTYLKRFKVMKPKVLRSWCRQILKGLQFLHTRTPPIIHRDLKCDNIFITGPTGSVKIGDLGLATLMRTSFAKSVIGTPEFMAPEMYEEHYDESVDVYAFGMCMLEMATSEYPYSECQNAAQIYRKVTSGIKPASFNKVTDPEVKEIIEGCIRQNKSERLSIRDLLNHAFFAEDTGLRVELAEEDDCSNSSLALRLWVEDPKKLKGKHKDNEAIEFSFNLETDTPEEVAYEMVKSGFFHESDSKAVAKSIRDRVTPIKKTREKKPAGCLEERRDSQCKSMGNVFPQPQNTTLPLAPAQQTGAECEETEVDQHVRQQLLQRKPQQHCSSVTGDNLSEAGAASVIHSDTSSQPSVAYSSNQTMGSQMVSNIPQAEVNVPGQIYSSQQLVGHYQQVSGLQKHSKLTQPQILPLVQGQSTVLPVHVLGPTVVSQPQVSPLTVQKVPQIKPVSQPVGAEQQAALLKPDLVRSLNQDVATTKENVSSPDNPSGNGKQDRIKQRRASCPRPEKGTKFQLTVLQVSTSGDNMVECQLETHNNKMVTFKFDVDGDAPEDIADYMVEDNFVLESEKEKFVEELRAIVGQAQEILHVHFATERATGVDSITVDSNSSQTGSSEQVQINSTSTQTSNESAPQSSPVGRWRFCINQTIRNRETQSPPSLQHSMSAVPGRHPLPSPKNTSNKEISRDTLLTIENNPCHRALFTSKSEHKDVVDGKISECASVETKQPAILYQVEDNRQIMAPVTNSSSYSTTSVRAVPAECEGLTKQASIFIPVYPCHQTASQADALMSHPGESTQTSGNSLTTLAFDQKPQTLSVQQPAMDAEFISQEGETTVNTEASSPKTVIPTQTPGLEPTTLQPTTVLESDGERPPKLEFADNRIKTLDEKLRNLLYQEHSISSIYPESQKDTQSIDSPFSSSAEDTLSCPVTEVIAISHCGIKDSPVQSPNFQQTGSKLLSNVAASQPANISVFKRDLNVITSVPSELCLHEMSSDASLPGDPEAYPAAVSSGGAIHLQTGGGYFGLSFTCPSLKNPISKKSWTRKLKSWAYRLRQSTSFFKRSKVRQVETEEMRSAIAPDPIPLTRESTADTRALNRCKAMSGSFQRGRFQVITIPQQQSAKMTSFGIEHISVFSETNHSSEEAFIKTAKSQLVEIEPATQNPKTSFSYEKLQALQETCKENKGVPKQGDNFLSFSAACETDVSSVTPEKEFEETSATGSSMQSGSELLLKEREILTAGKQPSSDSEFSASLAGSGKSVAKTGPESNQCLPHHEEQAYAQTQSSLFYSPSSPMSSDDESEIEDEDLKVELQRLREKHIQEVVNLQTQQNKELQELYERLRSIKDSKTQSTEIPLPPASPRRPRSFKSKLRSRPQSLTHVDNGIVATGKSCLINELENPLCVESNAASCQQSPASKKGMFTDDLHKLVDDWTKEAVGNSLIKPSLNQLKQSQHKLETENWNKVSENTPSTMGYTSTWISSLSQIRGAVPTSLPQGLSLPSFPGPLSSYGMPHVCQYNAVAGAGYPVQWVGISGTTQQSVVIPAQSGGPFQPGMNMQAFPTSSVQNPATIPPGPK
Chain of EGFR (P00533 25-1210): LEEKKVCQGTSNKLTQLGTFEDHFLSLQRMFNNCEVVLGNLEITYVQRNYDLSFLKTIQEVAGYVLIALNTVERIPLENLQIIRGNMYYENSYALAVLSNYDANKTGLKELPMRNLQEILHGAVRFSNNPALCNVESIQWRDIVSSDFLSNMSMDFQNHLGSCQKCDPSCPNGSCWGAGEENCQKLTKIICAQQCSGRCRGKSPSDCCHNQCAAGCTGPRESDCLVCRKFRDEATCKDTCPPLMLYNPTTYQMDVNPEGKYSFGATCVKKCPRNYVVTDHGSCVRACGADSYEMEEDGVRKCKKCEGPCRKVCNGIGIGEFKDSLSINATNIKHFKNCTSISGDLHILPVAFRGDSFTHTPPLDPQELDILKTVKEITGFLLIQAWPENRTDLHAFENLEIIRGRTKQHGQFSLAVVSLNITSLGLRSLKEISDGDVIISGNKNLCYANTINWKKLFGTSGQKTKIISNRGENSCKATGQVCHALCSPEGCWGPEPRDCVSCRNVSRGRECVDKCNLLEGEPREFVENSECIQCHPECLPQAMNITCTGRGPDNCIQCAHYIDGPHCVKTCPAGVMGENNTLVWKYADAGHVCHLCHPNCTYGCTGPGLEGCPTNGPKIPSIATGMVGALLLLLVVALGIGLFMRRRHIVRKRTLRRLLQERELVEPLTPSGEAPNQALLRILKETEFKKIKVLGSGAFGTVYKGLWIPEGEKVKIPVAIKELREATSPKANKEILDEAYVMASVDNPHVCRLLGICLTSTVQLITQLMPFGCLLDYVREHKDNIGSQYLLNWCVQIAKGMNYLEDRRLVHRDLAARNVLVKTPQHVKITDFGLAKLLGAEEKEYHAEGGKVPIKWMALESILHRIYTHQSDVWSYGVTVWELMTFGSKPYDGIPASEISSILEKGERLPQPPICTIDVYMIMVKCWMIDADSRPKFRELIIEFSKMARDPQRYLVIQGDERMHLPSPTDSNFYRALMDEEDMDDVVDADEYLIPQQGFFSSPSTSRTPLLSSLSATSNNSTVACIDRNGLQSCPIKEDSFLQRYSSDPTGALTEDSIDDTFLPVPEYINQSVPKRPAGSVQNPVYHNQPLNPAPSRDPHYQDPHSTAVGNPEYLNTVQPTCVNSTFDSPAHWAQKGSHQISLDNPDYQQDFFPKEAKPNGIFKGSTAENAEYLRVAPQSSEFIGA
T6 sequence (P19784 whole entry): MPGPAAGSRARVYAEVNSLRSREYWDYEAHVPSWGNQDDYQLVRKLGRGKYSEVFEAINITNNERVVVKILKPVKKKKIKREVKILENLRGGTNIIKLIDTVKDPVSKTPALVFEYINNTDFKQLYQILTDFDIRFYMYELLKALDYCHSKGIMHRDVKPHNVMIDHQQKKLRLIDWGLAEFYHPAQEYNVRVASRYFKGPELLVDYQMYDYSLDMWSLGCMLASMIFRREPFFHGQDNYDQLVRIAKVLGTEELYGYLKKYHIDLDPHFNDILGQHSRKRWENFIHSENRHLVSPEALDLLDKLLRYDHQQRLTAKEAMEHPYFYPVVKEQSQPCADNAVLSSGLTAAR
T6 sequence (P67870 whole entry partner): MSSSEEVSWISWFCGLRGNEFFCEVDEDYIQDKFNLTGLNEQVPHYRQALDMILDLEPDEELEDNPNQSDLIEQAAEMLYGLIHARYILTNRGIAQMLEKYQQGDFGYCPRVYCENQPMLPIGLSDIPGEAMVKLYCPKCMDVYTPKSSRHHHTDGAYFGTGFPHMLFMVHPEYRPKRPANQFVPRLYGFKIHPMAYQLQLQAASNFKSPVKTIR
Chain of BRK (Q13882 whole entry): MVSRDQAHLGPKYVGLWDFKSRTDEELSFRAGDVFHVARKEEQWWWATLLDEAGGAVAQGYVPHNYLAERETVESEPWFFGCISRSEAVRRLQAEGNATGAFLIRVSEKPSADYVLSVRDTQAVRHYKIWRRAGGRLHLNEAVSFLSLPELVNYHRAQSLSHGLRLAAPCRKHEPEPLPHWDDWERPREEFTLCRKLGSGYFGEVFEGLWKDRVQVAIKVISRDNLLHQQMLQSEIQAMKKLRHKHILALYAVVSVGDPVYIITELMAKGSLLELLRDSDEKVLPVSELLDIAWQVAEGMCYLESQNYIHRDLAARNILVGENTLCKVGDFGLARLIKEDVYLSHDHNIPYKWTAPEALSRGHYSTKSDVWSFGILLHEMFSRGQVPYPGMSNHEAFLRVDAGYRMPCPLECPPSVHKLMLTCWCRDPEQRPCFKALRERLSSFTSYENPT
T3 sequence (Q16816 whole entry): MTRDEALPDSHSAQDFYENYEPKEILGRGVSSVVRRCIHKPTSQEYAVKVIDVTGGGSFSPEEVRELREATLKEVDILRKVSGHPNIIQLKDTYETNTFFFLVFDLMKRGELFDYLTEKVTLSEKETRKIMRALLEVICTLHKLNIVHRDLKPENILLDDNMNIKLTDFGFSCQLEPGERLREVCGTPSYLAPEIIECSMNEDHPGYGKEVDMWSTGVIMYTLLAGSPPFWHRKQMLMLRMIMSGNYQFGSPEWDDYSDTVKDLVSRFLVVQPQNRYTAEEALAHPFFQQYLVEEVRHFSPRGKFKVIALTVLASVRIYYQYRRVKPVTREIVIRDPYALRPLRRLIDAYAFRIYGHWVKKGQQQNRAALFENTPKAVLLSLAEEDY

| Compound | Percentage inhibition of kinase enzyme activity (MAP4K2) [%] | Percentage inhibition of kinase enzyme activity (BRK) [%] | Percentage inhibition of kinase enzyme activity (PKCα) [%] | Percentage inhibition of kinase enzyme activity (EGFR) [%] | Percentage inhibition of kinase enzyme activity (PHKG1) [%] | Percentage inhibition of kinase enzyme activity (CDK6/CycD3) [%] | Percentage inhibition of kinase enzyme activity (WNK3) [%] | Percentage inhibition of kinase enzyme activity (CK2α2/β) [%] | Percentage inhibition of kinase enzyme activity (PEK) [%] | inhibition at 1 µM (BRK; read-out: Inhibition of BRK) [%] | inhibition at 1 µM (EGFR; read-out: Inhibition of EGFR) [%] |
| --- | --- | --- | --- | --- | --- | --- | --- | --- | --- | --- | --- |
| CC#CC(=O)N1CCC[C@H]1c1nc(-c2ccc(C(=O)Nc3ccccn3)cc2)c2c(N)nccn12 [acalabrutinib] | -11.21 | 51.05 | -16.89 | 19.39 | -4.16 | 2.94 | -0.26 | 9.56 | 8.39 |  |  |
| C=CC(=O)N1CCC([C@@H]2CCNc3c(C(N)=O)c(-c4ccc(Oc5ccccc5)cc4)nn32)CC1 [zanubrutinib] |  | 98.97 |  |  |  |  |  |  |  |  |  |
| O=C(c1ccc(Oc2ccccc2)cc1Cl)c1c[nH]c2ncnc(N[C@@H]3CC[C@@H](CO)OC3)c12 [nemtabrutinib] | 78.03 |  | -0.64 | 99.77 | 7.46 | 0.23 | 52.96 | -3.55 | 49.66 |  |  |
| COc1ccc(F)cc1C(=O)NCc1ccc(-c2nn([C@@H](C)C(F)(F)F)c(N)c2C(N)=O)cc1 [pirtobrutinib] | 3.56 | 89.81 | 11.69 | 85.26 | 4.81 | -5.97 | 2.54 | 4.12 | -9.35 | > 75 | > 75 |
| C=CC(=O)N1CCC[C@@H](n2nc(-c3ccc(Oc4ccccc4)cc3)c3c(N)ncnc32)C1 [ibrutinib] | -4.43 | 102.78 | 0.74 |  | 1.53 | 4.32 | 6.84 | -7.37 | 7.47 |  |  |
